Where two headings read alike, the source gives them in different places. No end group written: not given here.
What was measured:
[1] = system: human red blood cells; assay: Cytotoxicity: hemolysis of human red blood cells; assay type: cell-based
Procedure: The cytotoxicity of the selected IAPS was performed using human red blood cells in strict accordance with relevant guidelines and regulations (Ethical committee – UnB # 1.939.989). Different concentrations of IAPs (128 µM–0.5 µM) were incubated with a final concentration of 2.5 × 10^5 red blood cells.mL^−1. Briefly, 100 µL of red blood cells was incubated with 100 µL of different concentrations of each IAP, prepared in PBS, for 30 minutes at 37 °C, with constant shaking at 120 rpm. PBS and Triton X-100 0.1% (v/v) were used as negative and positive controls, respectively. After incubation, the solution was centrifuged at 900 × g for five minutes followed by transferring 50 µL of the supernatant to flat-bottom polystyrene 96-well micro plates containing 50 µL of PBS. Microplate reading was performed at a BioTek Multireader, using a wavelength of 540 nm. All tests were performed in 3 biological replicates, composed of 3 biological repetitions each. The obtained data was subtracted by the negative control and relative to the positive control, defined as 100% lysis.

[2] = system: Fusarium oxysporum f.sp. vasinfectum; details: RPMI 1640 pH 7.0; 28 °C, 72 h; start 2.5 x 10 3; 256-0.5 µM; mean ± SD of 3 biological repetitions (SD 0 not displayed); N/A = no antimicrobial activity observed
Procedure: (§1) The susceptibility test of microorganisms was performed to evaluate the inhibitory activity of the IAPs. Protocols M7-A10[50], M27-A3[51] and M38-A2[52] from Clinical & Laboratory Standards Institute (CLSI) were used for bacteria, yeasts and filamentous fungi tests, respectively. Briefly, different concentration of IAPs (256-0.5 µM) were tested against 16 microorganisms, in a final volume of 100 µL. Media conditions, final cell concentration and incubation conditions are presented in Supplementary Material 07, Table S5. Three biological repetitions, with 2 technical replicates each, were performed for each test, on polystyrene flat-bottom 96 wells microplates. The minimum inhibitory concentration (MIC) was defined as the concentration that no cells/hyphae were detected when visualized by optical microscopy.
(§2) Supplementary Material 07, Table S5
(§3) Table S5. Microorganisms and growth conditions.

[3] = system: Rhizoctonia solani; details: RPMI 1640 pH 7.0; 28 °C, 48 h; start 2.5 x 10 3; 256-0.5 µM; mean ± SD of 3 biological repetitions (SD 0 not displayed); N/A = no antimicrobial activity observed
Procedure: as §1, §2, §3

[4] = system: Fusarium solani; details: RPMI 1640 pH 7.0; 28 °C, 48 h; start 2.5 x 10 3; 256-0.5 µM; mean ± SD of 3 biological repetitions (SD 0 not displayed); N/A = no antimicrobial activity observed
Procedure: as §1, §2, §3

[5] = system: Escherichia coli; assay: microbe, parasite or virus in culture; details: ATCC 25922; Mueller-Hinton; 37 °C, 24 h; start 5.0 x 10^5 cells; 256-0.5 µM; mean ± SD of 3 biological repetitions (SD 0 not displayed); N/A = no antimicrobial activity observed
Procedure: as §1, §2, §3

[6] = system: Candida albicans; assay: microbe, parasite or virus in culture; details: ATCC 90028; RPMI 1640 pH 7.0; 37 °C, 48 h; start 2.5 x 10^3 cells; 256-0.5 µM; mean ± SD of 3 biological repetitions (SD 0 not displayed); no cells seen by optical microscopy; N/A = no antimicrobial activity observed
Procedure: as §1, §2, §3

[7] = system: Fusarium oxysporum; assay: microbe, parasite or virus in culture; details: RPMI 1640 pH 7.0; 28 °C, 48 h; start 2.5 x 10 3; 256-0.5 µM; mean ± SD of 3 biological repetitions (SD 0 not displayed); N/A = no antimicrobial activity observed
Procedure: as §1, §2, §3

[8] = system: Pseudomonas syringae pv. tabaci; assay: microbe, parasite or virus in culture; details: Mueller-Hinton; 28 °C, 24 h; start 5.0 x 10^5 cells; 256-0.5 µM; mean ± SD of 3 biological repetitions (SD 0 not displayed); N/A = no antimicrobial activity observed
Procedure: as §1, §2, §3

[9] = system: Xanthomonas campestris; assay: microbe, parasite or virus in culture; details: pv. citri; Mueller-Hinton; 28 °C, 24 h; start 5.0 x 10^5 cells; 256-0.5 µM; mean ± SD of 3 biological repetitions (SD 0 not displayed); N/A = no antimicrobial activity observed
Procedure: as §1, §2, §3

[10] = system: Staphylococcus aureus; assay: microbe, parasite or virus in culture; details: ATCC 25923; Mueller-Hinton; 37 °C, 24 h; start 5.0 x 10^5 cells; 256-0.5 µM; mean ± SD of 3 biological repetitions (SD 0 not displayed); N/A = no antimicrobial activity observed
Procedure: as §1, §2, §3

[11] = system: Bacillus cereus; assay: microbe, parasite or virus in culture; details: ATCC 14579; Mueller-Hinton; 37 °C, 24 h; start 5.0 x 10^5 cells; 256-0.5 µM; mean ± SD of 3 biological repetitions (SD 0 not displayed); N/A = no antimicrobial activity observed
Procedure: as §1, §2, §3

[12] = system: Bacillus subtilis; assay: microbe, parasite or virus in culture; details: ATCC 23857; Mueller-Hinton; 37 °C, 24 h; start 5.0 x 10^5 cells; 256-0.5 µM; mean ± SD of 3 biological repetitions (SD 0 not displayed); N/A = no antimicrobial activity observed
Procedure: as §1, §2, §3

[13] = system: Erwinia carotovora; assay: microbe, parasite or virus in culture; details: Mueller-Hinton; 28 °C, 24 h; start 5.0 x 10^5 cells; 256-0.5 µM; mean ± SD of 3 biological repetitions (SD 0 not displayed); N/A = no antimicrobial activity observed
Procedure: as §1, §2, §3

[14] = system: Trichoderma asperellum; assay: microbe, parasite or virus in culture; details: RPMI 1640 pH 7.0; 28 °C, 48 h; start 2.5 x 10 3; 256-0.5 µM; mean ± SD of 3 biological repetitions (SD 0 not displayed); N/A = no antimicrobial activity observed
Procedure: as §1, §2, §3

[15] = system: Cryptococcus neoformans; assay: microbe, parasite or virus in culture; details: ATCC 28957; RPMI 1640 pH 7.0; 37 °C, 72 h; start 2.5 x 10^3 cells; 256-0.5 µM; mean ± SD of 3 biological repetitions (SD 0 not displayed); N/A = no antimicrobial activity observed
Procedure: as §1, §2, §3

[16] = system: Ramularia areola; assay: microbe, parasite or virus in culture; details: RPMI 1640 pH 7.0; 25 °C, 120 h; start 2.5 x 10 3; 256-0.5 µM; mean ± SD of 3 biological repetitions (SD 0 not displayed); N/A = no antimicrobial activity observed
Procedure: as §1, §2, §3

[17] = system: Pseudomonas aeruginosa; assay: microbe, parasite or virus in culture; details: ATCC 27853; Mueller-Hinton; 37 °C, 24 h; start 5.0 x 10^5 cells; 256-0.5 µM; mean ± SD of 3 biological repetitions (SD 0 not displayed); N/A = no antimicrobial activity observed
Procedure: as §1, §2, §3

Substance: FFGHIWHGARTLFRDVFA-NH2 [Cs02]
- Hemolytic activity of human red blood cells (%) SC50 ([1]; SC50 = IAP concentration that at least 50% of red blood cells remain intact, 128 µM–0.5 µM tested, PBS, 30 minutes, 37 °C, absorbance 540 nm): >128 µM
- Minimum inhibitory concentration, Fusarium oxysporum f.sp. vasinfectum [2]: 13.33 ± 4.61 µM
- Minimum inhibitory concentration, Rhizoctonia solani [3]: 32.0 µM
- Minimum inhibitory concentration, Fusarium solani [4]: 8.0 µM
- Minimum inhibitory concentration, Escherichia coli [5]: 8.0 µM
- Minimum inhibitory concentration, Candida albicans [6]: 32.0 µM
- Minimum inhibitory concentration, Fusarium oxysporum [7]: 16.0 µM
- Minimum inhibitory concentration, Pseudomonas syringae pv. tabaci [8]: 4.0 µM
- Minimum inhibitory concentration, Xanthomonas campestris [9]: 32.0 µM
- Minimum inhibitory concentration, Staphylococcus aureus [10]: 8.0 µM
- Minimum inhibitory concentration, Bacillus cereus [11]: 64.0 µM
- Minimum inhibitory concentration, Bacillus subtilis [12]: 3.33 ± 1.15 µM
- Minimum inhibitory concentration, Erwinia carotovora [13]: 32.0 µM
- Minimum inhibitory concentration, Trichoderma asperellum [14]: 8.0 µM
- Minimum inhibitory concentration, Cryptococcus neoformans [15]: 32.0 µM
- Minimum inhibitory concentration, Ramularia areola [16]: 16.0 µM

Substance: GSLHGFMYRYLKNMVLNLF-NH2 [Cs01]
- Hemolytic activity (% ± SD) at 1 µM [1]: 0.10 ± 0.04%
- Hemolytic activity (% ± SD) at 2 µM [1]: 0.05 ± 0.03%
- Hemolytic activity (% ± SD) at 4 µM [1]: 0.01 ± 0.00%
- Hemolytic activity (% ± SD) at 8 µM [1]: 0.09 ± 0.01%
- Hemolytic activity (% ± SD) at 16 µM [1]: 0.27 ± 0.09%
- Hemolytic activity (% ± SD) at 32 µM [1]: 0.31 ± 0.15%
- Hemolytic activity (% ± SD) at 64 µM [1]: 2.18 ± 1.62%
- Hemolytic activity (% ± SD) at 128 µM [1]: 8.01 ± 2.16%
- Hemolytic activity of human red blood cells (%) SC50 [1]: >128 µM
- Minimum inhibitory concentration, Escherichia coli [5]: 32.0 µM
- Minimum inhibitory concentration, Candida albicans [6]: 2.67 ± 1.15 µM
- Minimum inhibitory concentration, Staphylococcus aureus [10]: 4.0 µM
- Minimum inhibitory concentration, Bacillus cereus [11]: 64.0 µM
- Minimum inhibitory concentration, Bacillus subtilis [12]: 8.0 µM
- Minimum inhibitory concentration, Cryptococcus neoformans [15]: 8.0 µM
- Minimum inhibitory concentration, Pseudomonas aeruginosa [17]: 32.0 µM

From PMC5643462, “Encrypted Antimicrobial Peptides from Plant Proteins” (Scientific Reports, 2017)
